{"source": "paper PMC9848371", "about": "“Synthesis, kinetic studies and in-silico investigations of novel quinolinyl-iminothiazolines as alkaline phosphatase inhibitors” (Journal of Enzyme Inhibition and Medicinal Chemistry, 2023)", "key": {"[1]": {"biological_target": "T1, calf intestinal alkaline phosphatase (Bos taurus, UniProt P19111)", "T1 sequence (P19111 20-533)": "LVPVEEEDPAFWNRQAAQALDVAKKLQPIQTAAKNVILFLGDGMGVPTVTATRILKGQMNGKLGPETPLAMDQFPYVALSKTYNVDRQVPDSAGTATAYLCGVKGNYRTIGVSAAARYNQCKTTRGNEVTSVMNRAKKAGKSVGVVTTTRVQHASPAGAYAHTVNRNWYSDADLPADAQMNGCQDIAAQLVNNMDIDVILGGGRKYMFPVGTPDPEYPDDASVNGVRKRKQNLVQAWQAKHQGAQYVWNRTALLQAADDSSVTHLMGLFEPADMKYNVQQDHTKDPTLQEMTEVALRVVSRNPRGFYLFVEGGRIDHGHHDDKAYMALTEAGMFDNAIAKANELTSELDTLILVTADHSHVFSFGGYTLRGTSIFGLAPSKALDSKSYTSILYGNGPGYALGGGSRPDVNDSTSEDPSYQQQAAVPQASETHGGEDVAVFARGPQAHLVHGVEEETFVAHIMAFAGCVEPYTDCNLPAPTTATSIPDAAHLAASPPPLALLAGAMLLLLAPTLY", "test": "Alkaline phosphatase inhibition assay (spectrophotometric, p-NPP substrate)", "type": "biochemical", "conditions": "Mean ± SEM, pH 9.5, 37 °C", "method": "The inhibitory activity of calf intestinal alkaline phosphatase was evaluated using spectrophotometric assay as previously reported in our studies[55]^,[56]. In addition, Kinetic mechanism analysis was conducted to determine the mechanism of inhibition. […] The detailed procedure for alkaline phosphate inhibition assay and kinetic mechanism analysis is given in supplementary file. […]\nAlkaline phosphatase inhibition assay and kinetic mechanism analysis\nThe reaction mixture comprised of 50 mM Tris -HCl buffer (5 mM MgCl2, 0.1 mM ZnCl2 pH 9.5), the compound (0.1 mM with final DMSO 1% (v/v) and mixture was pre -incubated for 10 min by adding 5 µL of CIALP (0.025 U/mL). Then, 10 µL of substrate (0.5 mM p-NPP (para nitrophenyl phosphate disodium salt) was added to initiate the reaction and the assay mixture was incubated again for 30 min at 37 °C. The change in absorbance of released p-nitrophenolate was monitored at 405 nm, using a 96-well microplate reader (SpectraMax ABS, USA). All the experiments were repeated three times in a triplicate manner.\nThe Alkaline Phosphatase activities were calculated according to the following formula: […]"}, "[2]": {"biological_target": "T1, calf intestinal alkaline phosphatase", "test": "Kinetic mechanism analysis (Lineweaver-Burk plot)", "type": "biochemical", "conditions": "for Km / Vmax: substrate para nitrophenyl phosphate disodium salt", "method": "The inhibitory activity of calf intestinal alkaline phosphatase was evaluated using spectrophotometric assay as previously reported in our studies[55]^,[56]. In addition, Kinetic mechanism analysis was conducted to determine the mechanism of inhibition. […] The detailed procedure for alkaline phosphate inhibition assay and kinetic mechanism analysis is given in supplementary file.\nAccording to the EI and ESI constants, respectively, it was determined if the compounds had the ability to inhibit the free enzyme and the enzyme-substrate complex. Figure 4 illustrates a succession of straight lines obtained from the Lineweaver–Burk plot of the enzyme’s kinetic studies against the substrate para nitrophenyl phosphate disodium salt at various inhibitor doses (A).\nWhere ODcontrol and ODsample represents the optical v densities in the absence and presence of […]\nThe inhibitor 6g concentrations were used 0.00, 0.169, 0.337 and 0.674 µM, Substrate p-NPP concentrations were 10, 5, 2.5, 1.25, 0.625 and 0.3125 mM. Pre-incubation time and other conditions were same as described in alkaline phosphatase inhibition assay section. Maximal initial velocities were determined from initial linear portion of absorbances up to 10 minutes after addition of enzyme at per minute’s interval. The inhibition type on the enzyme was assayed by Lineweaver-Burk plot of inverse of velocities (1/V) versus inverse of substrate concentration 1/[S] mM-1. The EI dissociation constant Ki was determined by secondary plot of 1/V versus inhibitor […]\nInformation Classification: General"}}, "note": "Entries after “also recorded” stand apart in the source; their conditions may differ.", "data": [{"smiles": "CCCC(=O)/N=c1/scc(-c2ccc(Br)cc2)n1-c1cnc2ccccc2c1", "note": "[Compound 6a]", "values": [{"measurement": "IC50", "setting": "[1]", "value": "7250 ± 435", "unit": "nM"}]}, {"smiles": "CCCCC(=O)/N=c1/scc(-c2ccc(Br)cc2)n1-c1cnc2ccccc2c1", "note": "[Compound 6b]", "values": [{"measurement": "IC50", "setting": "[1]", "value": "3150 ± 251", "unit": "nM"}]}, {"smiles": "CCCCCC(=O)/N=c1/scc(-c2ccc(Br)cc2)n1-c1cnc2ccccc2c1", "note": "[Compound 6c, (E)-N-(4-(4-Bromophenyl)-3-(quinolin-3-yl)thiazol-2(3H)-ylidene)hexanamide]", "values": [{"measurement": "IC50", "setting": "[1]", "value": "4240 ± 241", "unit": "nM"}, {"measurement": "melting point", "value": "181 to 182", "unit": "°C"}]}, {"smiles": "CCCCCCC(=O)N=c1scc(-c2ccc(Br)cc2)n1-c1cnc2ccccc2c1", "note": "[Compound 6d]", "values": [{"measurement": "IC50", "setting": "[1]", "value": "886 ± 74", "unit": "nM"}, {"measurement": "melting point", "value": "188 to 190", "unit": "°C"}]}, {"smiles": "CCCCCCCC(=O)N=c1scc(-c2ccc(Br)cc2)n1-c1cnc2ccccc2c1", "note": "[Compound 6e]", "values": [{"measurement": "IC50", "setting": "[1]", "value": "754 ± 55", "unit": "nM"}]}, {"smiles": "CCCCCCCCCC(=O)/N=c1/scc(-c2ccc(Br)cc2)n1-c1cnc2ccccc2c1", "note": "[Compound 6f]", "values": [{"measurement": "IC50", "setting": "[1]", "value": "8680 ± 908", "unit": "nM"}]}, {"smiles": "O=C(/N=c1/scc(-c2ccc(Br)cc2)n1-c1cnc2ccccc2c1)c1ccccc1", "note": "[Compound 6g, (E)-N-(4-(4-bromophenyl)-3-(quinolin-3-yl)thiazol-2(3H)-ylidene)benzamide]", "values": [{"measurement": "IC50", "setting": "[1]", "value": "337 ± 15", "unit": "nM"}, {"measurement": "melting point", "value": "217 to 220", "unit": "°C"}, {"measurement": "Km", "setting": "[2]; 6g concentration 0.169 µM", "value": 310, "unit": "µM"}, {"measurement": "Vmax", "setting": "[2]; 6g concentration 0.169 µM", "value": "0.00204 ΔA /Min"}, {"measurement": "Km", "setting": "[2]; 6g concentration 0.337 µM", "value": 310, "unit": "µM"}, {"measurement": "Vmax", "setting": "[2]; 6g concentration 0.337 µM", "value": "0.00175 ΔA /Min"}, {"measurement": "Km", "setting": "[2]; 6g concentration 0.674 µM", "value": 310, "unit": "µM"}, {"measurement": "Vmax", "setting": "[2]; 6g concentration 0.674 µM", "value": "0.00133 ΔA /Min"}, {"measurement": "Inhibition type", "setting": "[2]; Lineweaver-Burk plot", "value": "non-competitively; also recorded: Non-Competitive"}, {"measurement": "Ki", "setting": "[2]; secondary plot of slope vs inhibitor concentration, read-out: Ki (EI dissociation constant)", "value": 470, "unit": "nM"}]}, {"smiles": "Cc1ccc(C(=O)/N=c2/scc(-c3ccc(Br)cc3)n2-c2cnc3ccccc3c2)cc1", "note": "[Compound 6h]", "values": [{"measurement": "IC50", "setting": "[1]", "value": "6300 ± 634", "unit": "nM"}, {"measurement": "melting point", "value": "103 to 105", "unit": "°C"}]}, {"smiles": "O=C(/N=c1/scc(-c2ccc(Br)cc2)n1-c1cnc2ccccc2c1)c1ccc(Cl)cc1Cl", "note": "[Compound 6i, N-dichlorobenzamide quinolinyl iminothiazoline]", "values": [{"measurement": "IC50", "setting": "[1]", "value": "957 ± 71", "unit": "nM"}]}, {"smiles": "O=C(/N=c1/scc(-c2ccc(Br)cc2)n1-c1cnc2ccccc2c1)c1cc([N+](=O)[O-])cc([N+](=O)[O-])c1", "note": "[Compound 6j, N-nitrobenzamide quinolinyl iminothiazoline]", "values": [{"measurement": "IC50", "setting": "[1]", "value": "509 ± 36", "unit": "nM"}]}]}
